Source: article PMC8534050, “Discovery of a Potent and Highly Isoform-Selective Inhibitor of the Neglected Ribosomal Protein S6 Kinase Beta 2 (S6K2)” (Cancers, 2021)

Legend:
[1] = Aqueous degradation at pH 10.2; format: physicochemical; conditions: sodium tetraborate buffer (28 mM), no nucleophile, read-out: t1/2 of aqueous degradation (converted)
Experimental: (§1) The Nα-acetyl lysine stability assay was performed in analogy to the GSH stability assay by substituting GSH with Nα-acetyl lysine at pH 7.4 and additionally at pH 10.2 to mimic the pKa depression often observed for biologically relevant lysines. PBS-buffer was substituted with a sodium tetraborate buffer (28 mM) for experiments at pH 10.2.
4. Nα-Acetyl Lysine Stability Assay

[2] = biological target: T1, MAPK13 (Homo sapiens, UniProt O15264); assay: DSF thermal shift assay; format: binding; conditions: MAPK13; inhibitor 10 μM, protein 2 μM; read-out: ΔTm
T1 construct: purchased in-house DSF (thermal shift) panel per Fedorov et al
T1 sequence (O15264 whole entry): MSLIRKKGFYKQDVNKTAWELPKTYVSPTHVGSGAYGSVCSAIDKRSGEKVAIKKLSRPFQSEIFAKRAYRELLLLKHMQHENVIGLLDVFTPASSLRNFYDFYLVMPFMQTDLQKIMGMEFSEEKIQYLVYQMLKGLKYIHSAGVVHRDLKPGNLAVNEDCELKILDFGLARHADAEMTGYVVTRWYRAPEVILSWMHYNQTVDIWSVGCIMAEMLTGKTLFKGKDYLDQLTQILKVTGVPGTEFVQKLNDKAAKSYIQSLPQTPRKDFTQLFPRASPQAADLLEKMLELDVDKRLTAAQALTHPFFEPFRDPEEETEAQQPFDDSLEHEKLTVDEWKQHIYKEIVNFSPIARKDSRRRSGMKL
Experimental: (§2) Differences in the melting temperature (ΔTm) were measured as described by Fedorov et al.. Purified proteins were buffered in 25 mM HEPES (pH 7.5), 500 mM NaCl and were assayed in a 384-well plate with a final protein concentration of 2 μM in 10 μL assay volume. Inhibitors were added to a final concentration of 10 μM using an ECHO 550 acoustic dispenser (Labcyte, San José, CA, USA). As a fluorescence probe, SYPRO-Orange (Molecular Probes, Eugene, OR, USA) was added in a 1:5000 dilution. Filters for excitation and emission were set to 465 nm and 590 nm, respectively. The temperature was increased from 25 °C with 3 °C/min to a final temperature of 95 °C, while scanning, using the QuantStudio5 (Applied Biosystems, Waltham, MA, USA). Data were analyzed through Boltzmann equation in the Protein Thermal Shift software (Applied Biosystems, Waltham, MA, USA). Samples were measured in technical duplicates.

[3] = biological target: T2, CAMK4 (Homo sapiens, UniProt Q16566); assay: DSF thermal shift assay; format: binding; conditions: CAMK4; inhibitor 10 μM, protein 2 μM; read-out: ΔTm
T2 construct: purchased in-house DSF (thermal shift) panel per Fedorov et al
T2 sequence (Q16566 whole entry): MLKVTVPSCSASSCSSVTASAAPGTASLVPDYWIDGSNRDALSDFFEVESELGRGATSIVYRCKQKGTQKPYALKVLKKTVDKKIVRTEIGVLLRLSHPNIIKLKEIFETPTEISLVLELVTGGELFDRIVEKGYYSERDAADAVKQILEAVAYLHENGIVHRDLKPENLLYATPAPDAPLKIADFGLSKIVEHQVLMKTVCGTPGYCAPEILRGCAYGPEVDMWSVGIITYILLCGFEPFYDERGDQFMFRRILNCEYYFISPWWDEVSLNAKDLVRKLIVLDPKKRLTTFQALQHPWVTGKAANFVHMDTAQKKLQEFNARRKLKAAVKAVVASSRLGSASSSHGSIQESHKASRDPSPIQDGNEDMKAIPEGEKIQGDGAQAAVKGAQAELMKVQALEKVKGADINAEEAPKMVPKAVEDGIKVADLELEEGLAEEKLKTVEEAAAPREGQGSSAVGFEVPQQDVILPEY
Experimental: as §2

[4] = biological target: T3, OSR1 (Homo sapiens, UniProt O95747); assay: DSF thermal shift assay; format: binding; conditions: OSR1; inhibitor 10 μM, protein 2 μM; read-out: ΔTm
T3 construct: purchased in-house DSF (thermal shift) panel per Fedorov et al
T3 sequence (O95747 whole entry): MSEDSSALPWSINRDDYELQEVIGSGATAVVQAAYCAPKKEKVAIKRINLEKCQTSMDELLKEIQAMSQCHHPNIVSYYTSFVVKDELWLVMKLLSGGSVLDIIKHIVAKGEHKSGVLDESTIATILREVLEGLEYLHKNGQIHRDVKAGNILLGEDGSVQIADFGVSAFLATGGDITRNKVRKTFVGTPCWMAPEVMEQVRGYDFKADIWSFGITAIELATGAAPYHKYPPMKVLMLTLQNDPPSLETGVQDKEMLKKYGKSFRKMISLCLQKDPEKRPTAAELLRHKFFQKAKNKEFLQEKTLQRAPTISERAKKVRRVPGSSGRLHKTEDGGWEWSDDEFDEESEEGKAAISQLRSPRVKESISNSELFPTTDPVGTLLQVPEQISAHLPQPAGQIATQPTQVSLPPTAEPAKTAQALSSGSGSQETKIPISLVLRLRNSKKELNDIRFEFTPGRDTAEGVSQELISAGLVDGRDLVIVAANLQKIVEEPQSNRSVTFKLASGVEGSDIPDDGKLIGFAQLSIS
Experimental: as §2

[5] = biological target: T4, RPS6K5 (Homo sapiens, UniProt O75582); assay: DSF thermal shift assay; format: binding; conditions: RPS6K5; inhibitor 10 μM, protein 2 μM; read-out: ΔTm
T4 construct: purchased in-house DSF (thermal shift) panel per Fedorov et al
Experimental: as §2

[6] = biological target: T5, MAPK6 (Homo sapiens, UniProt Q16659); assay: DSF thermal shift assay; format: binding; conditions: MAPK6; inhibitor 10 μM, protein 2 μM; read-out: ΔTm
T5 construct: purchased in-house DSF (thermal shift) panel per Fedorov et al
T5 sequence (Q16659 whole entry): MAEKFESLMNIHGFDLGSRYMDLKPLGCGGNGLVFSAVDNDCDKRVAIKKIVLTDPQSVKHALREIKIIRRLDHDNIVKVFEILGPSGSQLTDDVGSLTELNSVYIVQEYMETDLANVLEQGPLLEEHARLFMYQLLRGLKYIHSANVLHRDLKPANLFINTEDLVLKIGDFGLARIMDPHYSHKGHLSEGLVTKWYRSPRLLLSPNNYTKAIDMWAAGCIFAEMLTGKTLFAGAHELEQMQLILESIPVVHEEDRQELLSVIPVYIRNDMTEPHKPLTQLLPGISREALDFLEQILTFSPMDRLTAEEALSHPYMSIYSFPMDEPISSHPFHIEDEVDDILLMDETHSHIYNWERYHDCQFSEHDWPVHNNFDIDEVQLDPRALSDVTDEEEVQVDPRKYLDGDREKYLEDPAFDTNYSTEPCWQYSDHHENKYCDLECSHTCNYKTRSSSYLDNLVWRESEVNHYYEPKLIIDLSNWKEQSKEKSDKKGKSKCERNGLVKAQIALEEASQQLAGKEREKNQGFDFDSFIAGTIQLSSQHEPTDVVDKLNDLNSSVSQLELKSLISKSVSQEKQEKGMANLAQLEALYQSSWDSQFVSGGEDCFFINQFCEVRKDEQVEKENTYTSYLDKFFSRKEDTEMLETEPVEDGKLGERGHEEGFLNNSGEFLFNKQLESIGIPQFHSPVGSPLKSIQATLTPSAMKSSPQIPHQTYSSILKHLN
Experimental: as §2

[7] = biological target: T6, S6K1 (Homo sapiens, UniProt P23443); assay: HotSpot kinase assay (Reaction Biology); format: biochemical
T6 construct: purchased Reaction Biology Corp
T6 sequence (P23443 whole entry): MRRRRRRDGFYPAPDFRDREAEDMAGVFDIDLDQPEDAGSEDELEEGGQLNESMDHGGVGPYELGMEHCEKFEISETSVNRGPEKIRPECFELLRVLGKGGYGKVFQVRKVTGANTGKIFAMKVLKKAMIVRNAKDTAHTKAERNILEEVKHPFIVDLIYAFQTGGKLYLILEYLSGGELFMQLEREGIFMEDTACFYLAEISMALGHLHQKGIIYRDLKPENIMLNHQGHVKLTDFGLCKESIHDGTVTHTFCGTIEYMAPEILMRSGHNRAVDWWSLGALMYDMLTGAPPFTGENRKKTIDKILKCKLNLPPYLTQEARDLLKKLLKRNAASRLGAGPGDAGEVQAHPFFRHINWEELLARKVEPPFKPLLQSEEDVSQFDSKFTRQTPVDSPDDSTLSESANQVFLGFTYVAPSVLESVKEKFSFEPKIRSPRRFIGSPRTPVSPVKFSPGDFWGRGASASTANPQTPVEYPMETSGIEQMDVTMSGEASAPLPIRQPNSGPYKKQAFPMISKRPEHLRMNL
Experimental: (§3) The provided IC50 values were measured using the HotSpot^TM Kinase Profiling assay and conducted at Reaction Biology Corp. in their facilities in Malvern, PA, USA.

[8] = biological target: T7, TTK (Homo sapiens, UniProt P33981); assay: HotSpot kinase assay (Reaction Biology); format: biochemical; conditions: five-point singlicate, max 5 μM
T7 construct: purchased Reaction Biology Corp
Experimental: as §3

[9] = biological target: T8, MAPKAPK3 (Homo sapiens, UniProt Q16644); assay: HotSpot kinase assay (Reaction Biology); format: biochemical; conditions: five-point singlicate, max 5 μM
T8 construct: purchased Reaction Biology Corp
T8 sequence (Q16644 whole entry): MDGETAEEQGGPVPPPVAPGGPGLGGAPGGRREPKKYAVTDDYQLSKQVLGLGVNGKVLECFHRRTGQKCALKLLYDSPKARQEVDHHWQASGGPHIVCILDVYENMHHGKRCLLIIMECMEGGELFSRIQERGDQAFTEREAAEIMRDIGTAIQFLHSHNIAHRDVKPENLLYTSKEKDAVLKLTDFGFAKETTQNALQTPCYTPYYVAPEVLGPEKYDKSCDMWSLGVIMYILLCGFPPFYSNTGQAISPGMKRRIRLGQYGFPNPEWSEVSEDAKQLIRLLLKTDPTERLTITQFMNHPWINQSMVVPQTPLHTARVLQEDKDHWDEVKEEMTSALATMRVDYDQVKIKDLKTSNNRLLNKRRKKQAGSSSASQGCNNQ
Experimental: as §3

[10] = biological target: T9, MAPKAPK2 (Homo sapiens, UniProt P49137); assay: HotSpot kinase assay (Reaction Biology); format: biochemical; conditions: five-point singlicate, max 5 μM
T9 construct: purchased in-house DSF (thermal shift) panel per Fedorov et al; IC50 follow-up at Reaction Biology Corp
T9 sequence (P49137 whole entry): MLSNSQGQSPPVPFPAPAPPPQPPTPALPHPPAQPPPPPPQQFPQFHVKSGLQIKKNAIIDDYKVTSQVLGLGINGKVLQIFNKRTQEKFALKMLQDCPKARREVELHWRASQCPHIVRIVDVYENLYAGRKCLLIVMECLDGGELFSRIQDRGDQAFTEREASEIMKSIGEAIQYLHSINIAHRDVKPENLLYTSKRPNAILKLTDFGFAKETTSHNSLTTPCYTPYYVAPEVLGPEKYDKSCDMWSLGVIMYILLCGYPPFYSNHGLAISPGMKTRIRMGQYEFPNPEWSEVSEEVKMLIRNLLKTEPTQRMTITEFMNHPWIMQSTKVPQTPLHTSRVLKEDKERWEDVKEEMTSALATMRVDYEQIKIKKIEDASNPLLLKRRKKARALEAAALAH
Experimental: as §3

[11] = biological target: T10, S6K2 (Homo sapiens, UniProt Q9UBS0); assay: HotSpot kinase assay (Reaction Biology); format: biochemical; conditions: apparent IC50; five-point; compound 2 triplicate, ± standard deviation
T10 construct: purchased Reaction Biology Corp
T10 sequence (Q9UBS0 whole entry): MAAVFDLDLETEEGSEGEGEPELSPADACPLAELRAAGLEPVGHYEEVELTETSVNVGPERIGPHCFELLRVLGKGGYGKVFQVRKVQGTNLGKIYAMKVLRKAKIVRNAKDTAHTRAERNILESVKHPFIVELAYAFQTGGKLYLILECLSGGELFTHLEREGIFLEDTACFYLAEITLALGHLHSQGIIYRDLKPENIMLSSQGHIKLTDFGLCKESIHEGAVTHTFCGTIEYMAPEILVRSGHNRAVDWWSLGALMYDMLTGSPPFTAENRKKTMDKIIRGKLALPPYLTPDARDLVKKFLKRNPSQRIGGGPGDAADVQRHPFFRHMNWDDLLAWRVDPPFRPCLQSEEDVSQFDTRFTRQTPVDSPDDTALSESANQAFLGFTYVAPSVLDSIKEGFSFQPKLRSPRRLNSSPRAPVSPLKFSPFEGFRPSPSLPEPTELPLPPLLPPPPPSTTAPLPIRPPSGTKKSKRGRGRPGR
Experimental: as §3

[12] = biological target: T11, FGFR4 (Homo sapiens, UniProt P22455); assay: HotSpot kinase assay (Reaction Biology); format: biochemical; conditions: five-point singlicate
T11 construct: purchased Reaction Biology Corp
T11 sequence (P22455 22-802): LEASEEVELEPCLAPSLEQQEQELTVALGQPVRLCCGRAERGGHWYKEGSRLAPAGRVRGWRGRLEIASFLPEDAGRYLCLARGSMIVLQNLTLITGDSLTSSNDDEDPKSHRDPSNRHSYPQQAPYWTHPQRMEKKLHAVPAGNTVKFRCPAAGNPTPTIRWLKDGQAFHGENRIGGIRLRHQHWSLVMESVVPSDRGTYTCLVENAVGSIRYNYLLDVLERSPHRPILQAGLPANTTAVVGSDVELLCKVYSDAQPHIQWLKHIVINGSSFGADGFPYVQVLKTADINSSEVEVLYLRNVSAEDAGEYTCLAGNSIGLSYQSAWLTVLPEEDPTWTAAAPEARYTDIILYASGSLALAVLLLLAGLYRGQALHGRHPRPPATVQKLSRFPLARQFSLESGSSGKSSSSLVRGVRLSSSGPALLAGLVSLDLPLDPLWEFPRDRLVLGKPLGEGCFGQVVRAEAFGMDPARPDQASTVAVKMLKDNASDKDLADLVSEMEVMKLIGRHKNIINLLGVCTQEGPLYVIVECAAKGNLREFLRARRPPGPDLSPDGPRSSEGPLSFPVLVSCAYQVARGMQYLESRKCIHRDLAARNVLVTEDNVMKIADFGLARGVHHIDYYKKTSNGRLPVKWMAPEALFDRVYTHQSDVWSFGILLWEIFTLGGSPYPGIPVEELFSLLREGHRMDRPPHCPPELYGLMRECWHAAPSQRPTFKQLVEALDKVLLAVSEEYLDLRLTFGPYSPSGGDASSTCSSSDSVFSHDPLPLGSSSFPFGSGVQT
Experimental: as §3

[13] = Nα-acetyl lysine stability assay (HPLC); format: physicochemical; conditions: for half-life: read-out: half-life t1/2 towards Nα-acetyl lysine (converted)
Experimental: as §1
4. Nα-Acetyl Lysine Stability Assay […]
h. The stability towards Nα-acetyl lysine at pH 10.2 was corrected for the slope of the curve of the […]
Figure S11. Nα-acetyl lysine stability assay of compound 2 at pH 7.4 and pH 10.2. Error bars represent the standard deviation of triplicate measurements. AUC: area under the curve of residual starting material 2, t: time in hours.

[14] = physchem; conditions: buffer
Experimental: The reaction temperature was chosen to be 40 °C.
Glutathione (GSH) Stability Assay
• 0 min: 40% MeOH, 60% phosphate buffer pH 2.3;
• 20 min: 85% MeOH, 15% phosphate buffer pH 2.3;
• 9 min: 95% MeOH, 5% phosphate buffer pH 2.3;
• 10 min: 95% MeOH, 5% phosphate buffer pH 2.3;

half-life [1]: 139 h
ΔTm at 10 µM [2]: -0.6 °C
ΔTm at 10 µM [3]: 0.1 °C
ΔTm at 10 µM [4]: 0.4 °C
ΔTm at 10 µM [5]: 1.5 °C
ΔTm at 10 µM [6]: 0.2 °C
IC50 ([7]; five-point singlicate, max 5 μM): > 5 µM
activity for S6K1 ([7]; maximum tested compound concentration of 5 μM): inactive
IC50 [8]: > 5 µM
IC50 [9]: > 5 µM
IC50 [10]: > 5 µM
IC50 [11]: 0.022 ± 0.0016 µM
IC50 [12]: 0.216 µM
half-life ([13]; Nα-acetyl lysine in MeCN/PBS buffer, pH 7.4): 1160 h
half-life ([13]; Nα-acetyl lysine in sodium tetraborate buffer (28 mM), pH 10.2, corrected for aqueous degradation): 27 h
reactivity towards Nα-acetyl lysine ([13]; physiological pH): negligible reactivity
half-life at […] [14]: 55 h
Compound: CCc1cnc(Nc2nc(Cl)ccc2[N+](=O)[O-])nc1N1CCN(Cc2nc3cc(C(F)(F)F)ccc3[nH]2)CC1 [Compound 2]
